US4710571A, “1H-imidazol-1-ethanol esters” (Gist-Brocades N.V., priority 1983, dated 1987)
Where a name gives a salt, the structure may show the parent alone.

How the values were obtained:
ear sebaceous glands = assay: lipid (sebum) synthesis in ear sebaceous glands of androgen-stimulated female hamsters, ear biopsies incubated with radioactive acetate; assay type: in vivo, hamster; settings: for inhibition in vivo at 100 µg/day / lipid synthesis inhibition: dose 100 μg per day; for inhibition in vivo at 100 µg/day / inhibition in vivo at 500 µg/day / lipid synthesis inhibition: androgen-stimulated female hamsters, percentages may rise over 100%; for inhibition in vivo at 500 µg/day: dose 500 μg per day
Protocol: The sebum synthesis inhibiting activities of 1H-imidazole-1-ethanol and the esters of formula I were established in a number of animal species and particularly in the hamster much research has been carried out. Androgens administered to female hamsters stimulate the sebum synthesis in ear sebaceous glands and the extent of sebum synthesis is determined by incubating ear biopsies with radioactive acetate (Hall D. W. R. et al, Hormonal Control of Hamster Ear Sebaceous Gland Lipogenesis, Arch. Dermatol Res., 275, 1 (1983)). The test was based on the conversion of the added radioactive acetate into lipids which after extraction with hexane can be determined in a scintillation counter. In the following Table, the inhibition percentages of a number of substances are shown and the percentages may rise over 100%. A very strong activity of a compound will inhibit both the activity stimulated by androgen and the basal sebum synthesis activity of the sebaceous gland.

sebum secretion = assay: inhibition of sebum secretion in humans; assay type: in vivo, human
penetration of the skin = assay type: in vivo, human; settings: in humans
skin irritation = assay type: in vivo, human; settings: in humans
[1] = tested on: lipid synthesis in other organs; assay: lipid synthesis inhibition in organs other than the sebaceous glands; assay type: in vivo; settings: animal tests
hormonal activity = hormonal activity in animal tests; assay type: in vivo

SMILES	inhibition in vivo at 100 µg/day (ear sebaceous glands; Mesocricetus auratus) [%]	further results
O=C(C=Cc1ccccc1)OCCn1ccnc1 [C6 H5 --CH=CH]	59	
O=C(OCCn1ccnc1)c1ccncc1 [4-pyridyl]	44	
CC(C)(C)c1ccc(C(=O)OCCn2ccnc2)cc1 [4-tBuC6 H4, HCl]		inhibition in vivo at 500 µg/day (ear sebaceous glands; Mesocricetus auratus): 81%
COc1ccc(C(=O)OCCn2ccnc2)cc1 [4-CH3 OC6 H4]	83	
Cc1ccc(C(=O)OCCn2ccnc2)cc1 [4-CH3 C6 H4, base]	91	
Cc1ccc(C(=O)OCCn2ccnc2)cc1 [4-CH3 C6 H4, maleate]		inhibition in vivo at 500 µg/day (ear sebaceous glands; Mesocricetus auratus): 92%
OCCn1ccnc1 [imidazolethanol, 1H-imidazole-1-ethanol]		inhibition in vivo at 1000 µg/day (ear sebaceous glands; Mesocricetus auratus, read-out: lipid synthesis inhibition): 37%
O=C(OCCn1ccnc1)c1cccs1 [2-thiophene, 2-(1H-imidazol-1-yl)-ethyl 2-thiophenecarboxylate]	89	
CC(=O)OCCn1ccnc1 [CH3]	82	
CC1=C(/C=C/C(C)=C/C=C/C(C)=C/C(=O)OCCn2ccnc2)C(C)(C)CCC1 [retinoic acid, 2-(1H-imidazol-1-yl)-ethyl retinoate ethanedioate (2:1)]	39	
O=C(OCCn1ccnc1)c1ccccc1 [C6 H5, 2-(1H-imidazol-1-yl)-ethyl benzoate]	82	inhibition of the sebum secretion (sebum secretion): good inhibition of the sebum secretion; penetration of the skin (penetration of the skin): good penetration of the skin; irritation (skin irritation): little irriation; lipid synthesis inhibition in other organs [1]: no lipid synthesis inhibition in other organs; hormonal activity (hormonal activity): no lipid synthesis inhibition in other organs or hormonal activity were found
CCCCCCCCCCCCCCCC(=O)OCCn1ccnc1 [CH3 (CH2)14 --, 2-(1H-imidazol-1-yl)-ethyl hexadecanoate ethanedioate (1:1)]	44	
O=C(CCc1ccccc1)OCCn1ccnc1 [C6 H5 (CH2)2]	76	
O=C(OCCn1ccnc1)c1ccc(Cl)cc1 [4-ClC6 H4]		inhibition in vivo at 500 µg/day (ear sebaceous glands; Mesocricetus auratus): 49%
CC(C)(C)c1ccc(C(=O)OCCn2ccnc2)cc1 [4-tBuC6 H4, base]	67	
CC(C)(C)C(=O)OCCn1ccnc1 [(CH3)3 --C--]	72	
CCCC(=O)OCCn1ccnc1 [(CH2)2 CH3]	106	
O=C(OCCn1ccnc1)c1ccc(Cl)cc1Cl [2,4-Cl2 C6 H3, base]		lipid synthesis inhibition (ear sebaceous glands): 60%
O=C(O)/C=C\C(=O)O.O=C(OCCn1ccnc1)c1ccc(Cl)cc1Cl [2,4-Cl2 C6 H3, maleate, 2-(1H-imidazol-1-yl)-ethyl 2,4-dichlorobenzoate (Z)-2-butenedioate(1:1)]		lipid synthesis inhibition (ear sebaceous glands): 37%
O=C(OCCn1ccnc1)c1ccc(C(F)(F)F)cc1 [4-CF3 C6 H4]		inhibition in vivo at 500 µg/day (ear sebaceous glands; Mesocricetus auratus): 70%
